Data published in patent US12319655B2, “RAF kinase inhibitors and methods of use thereof” (Deciphera Pharmaceuticals, LLC, priority 2021, dated 2025).

What was measured:
[1] = biological target: A-Raf kinase (SEQ. ID No: 1) (Homo sapiens (Human), UniProt P10398, Y301D/Y302D); test: Biochemical Assay for A-Raf (1); conditions: Table J, assay version (1); read-out: ARAF (1) IC50
Procedure, shortened: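 IC50 values were derived by four-parameter sigmoidal fitting of percent inhibition, calculated from reaction rates over the 4–5 h window. Absorbance at 340 nm was tracked for 6 h at 30 °C via coupled PK/LDH NADH depletion. Conditions: 1 mM ATP, 30.1 nM MEK substrate, 5.55 nM A-Raf (Y301D/Y302D), Tris pH 7.5, 1% DMSO.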

[2] = biological target: B-Raf (V600E) (SEQ. ID NO: 4) kinase (Homo sapiens (Human), UniProt P15056, V600E); test: Biochemical Assay for B-Raf (V600E) (1); conditions: Table J, BRAF V600E, assay version (1); read-out: BRAF VE (1) IC50
Sequence of B-Raf (V600E) (SEQ. ID NO: 4) kinase (P15056 416-766 V600E): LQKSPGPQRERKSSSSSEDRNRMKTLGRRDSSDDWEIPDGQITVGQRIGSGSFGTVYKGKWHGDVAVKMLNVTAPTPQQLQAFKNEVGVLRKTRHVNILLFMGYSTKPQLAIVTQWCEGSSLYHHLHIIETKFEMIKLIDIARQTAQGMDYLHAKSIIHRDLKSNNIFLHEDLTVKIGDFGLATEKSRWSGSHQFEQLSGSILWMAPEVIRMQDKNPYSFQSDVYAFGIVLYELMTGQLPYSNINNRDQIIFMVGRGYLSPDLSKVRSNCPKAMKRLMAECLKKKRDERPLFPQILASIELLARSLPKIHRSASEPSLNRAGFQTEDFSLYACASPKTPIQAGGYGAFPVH
Procedure, shortened: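 Serially diluted compounds tested against 0.03 nM enzyme with 30.1 nM MEK substrate and 1 mM ATP (Tris pH 7.5, 15 mM MgCl2), ATP use coupled to NADH loss via PK/LDH. A340 monitored continuously 6 h, 30 °C; IC50 fitted (four-parameter) from the 3–4 h rate versus no-compound and known-inhibitor controls.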

WM3928 cells = test: WM3928 Cell Proliferation Assay (1); format: cell-based
Procedure, shortened: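 IC50 was derived from resazurin fluorescence (ex 540, em 600 nm) after a 6–7 h dye incubation. Before that, cells had 67–72 h of compound exposure at 37 °C, 5% CO2.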

Miapaca-2 cells = test: MiaPaca-2 Cell Proliferation Assay (1); format: cell-based; conditions: Homo sapiens, MIA PaCa-2, single agent, read-out: MiaPaca2 (1) IC50
Procedure, shortened: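 Resazurin was added after compound exposure and incubated 5-6 h, then fluorescence read at 540 nm excitation and 600 nm emission to give IC50.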

Sequence of A-Raf kinase (SEQ. ID No: 1) (P10398 other isoform, or with tags, fused parts or gaps Y301D (already in the parent)/Y302D (already in the parent)): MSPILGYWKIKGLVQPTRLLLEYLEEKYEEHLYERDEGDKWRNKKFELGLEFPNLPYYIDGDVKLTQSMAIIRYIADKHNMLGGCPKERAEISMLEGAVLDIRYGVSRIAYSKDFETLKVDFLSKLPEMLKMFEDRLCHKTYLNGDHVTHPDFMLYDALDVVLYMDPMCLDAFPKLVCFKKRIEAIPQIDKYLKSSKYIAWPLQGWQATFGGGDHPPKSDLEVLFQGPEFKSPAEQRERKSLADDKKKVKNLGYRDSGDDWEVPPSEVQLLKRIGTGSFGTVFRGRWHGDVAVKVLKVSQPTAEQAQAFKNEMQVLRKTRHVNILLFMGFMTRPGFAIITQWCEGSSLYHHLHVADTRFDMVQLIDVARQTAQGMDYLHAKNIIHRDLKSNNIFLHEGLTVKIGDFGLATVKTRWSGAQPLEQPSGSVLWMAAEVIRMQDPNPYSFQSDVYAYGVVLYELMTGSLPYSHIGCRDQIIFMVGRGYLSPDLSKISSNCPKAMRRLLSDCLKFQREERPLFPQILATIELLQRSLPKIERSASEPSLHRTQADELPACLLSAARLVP

IC50 [1] | IC50 [2] | IC50 (Miapaca-2 cells) | SMILES | IC50 (WM3928 cells)
1000 to 10000 nM | ≤ 100 nM | 1000 to 10000 nM | Cc1ccc(NC(=O)c2ccnc(C3(C#N)CC3)c2)cc1-c1cccc(-c2cc(NC(=O)C3CC3)ncn2)c1 [Example 203] | ≤ 100 nM
1000 to 10000 nM | ≤ 100 nM | 1000 to 10000 nM | CNC(=O)c1cc(-c2cccc(-c3cc(NC(=O)c4ccnc(C(C)(C)C#N)c4)cnc3C)c2)ncn1 [Example 204] | 100 to 500 nM
1000 to 10000 nM | ≤ 100 nM | 1000 to 10000 nM | CNC(=O)c1cc(-c2cc(-c3cc(NC(=O)c4ccnc(C(C)(C)F)c4)ccc3C)ccn2)ccn1 [Example 214] | ≤ 100 nM
1000 to 10000 nM | ≤ 100 nM | 1000 to 10000 nM | CNC(=O)c1cc(-c2cc(-c3cc(NC(=O)c4cnnc(C5CC5)c4)ccc3C)ccn2)ccn1 [Example 215] | 500 to 1000 nM
500 to 1000 nM | ≤ 100 nM | 100 to 500 nM | Cc1ccc(NC(=O)c2ccnc(C(C)(C)C#N)c2)cc1-c1cncc(-c2cc(NC(=O)C3CC3)ncn2)c1 [Example 224] | ≤ 100 nM
100 to 500 nM | ≤ 100 nM | 1000 to 10000 nM | Cc1ccc(NC(=O)c2ccnc(C3CC3)c2)cc1-c1ccnc(-c2ccnc(NC(=O)C3CC3)c2)n1 [Example 229] | ≤ 100 nM
1000 to 10000 nM | ≤ 100 nM | 500 to 1000 nM | Cc1ccc(NC(=O)c2ccnc(C(C)(C)C#N)c2)cc1-c1cnnc(-c2ccnc(NC(=O)C3CC3)c2)c1 [Example 230] | ≤ 100 nM
1000 to 10000 nM | ≤ 100 nM | 1000 to 10000 nM | CNC(=O)c1cc(-c2cc(-c3cc(NC(=O)c4cccc(C(C)(C)C#N)c4)ccc3C)cc(OCCO)n2)ccn1 [Example 231] | ≤ 100 nM
1000 to 10000 nM | ≤ 100 nM | 1000 to 10000 nM | CNC(=O)c1cc(-c2cncc(-c3cc(NC(=O)c4ccnc(C(C)(C)C#N)c4)ccc3C)c2)ncn1 [Example 235] | ≤ 100 nM
500 to 1000 nM | ≤ 100 nM | 1000 to 10000 nM | Cc1ccc(NC(=O)c2ccnc(C(C)(C)C#N)c2)cc1-c1cc(-c2ccnc(NC(=O)C3CC3)c2)cnn1 [Example 245] | ≤ 100 nM
1000 to 10000 nM | ≤ 100 nM | 1000 to 10000 nM | Cc1ccc(NC(=O)c2cnnc(C3CC3)c2)cc1-c1ccnc(-c2ccnc(NC(=O)C3CC3)c2)n1 [Example 250] | 100 to 500 nM
1000 to 10000 nM | ≤ 100 nM | 1000 to 10000 nM | Cc1ncc(NC(=O)c2ccnc(C(C)(C)C#N)c2)cc1-c1ccnc(-c2ccnc(NC(=O)C3CC3)c2)c1 [Example 251] | ≤ 100 nM
1000 to 10000 nM | ≤ 100 nM | 1000 to 10000 nM | Cc1cc(F)c(NC(=O)c2cnnc(C3CC3)c2)cc1-c1nccc(-c2ccnc(NC(=O)C3CC3)c2)n1 [Example 252] | 500 to 1000 nM
1000 to 10000 nM | ≤ 100 nM | 1000 to 10000 nM | Cc1ncc(NC(=O)c2ccnc(C3CC3)c2)cc1-c1ccnc(-c2ccnc(NC(=O)C3CC3)c2)c1 [Example 253] | ≤ 100 nM
1000 to 10000 nM | ≤ 100 nM | 1000 to 10000 nM | Cc1ncc(NC(=O)c2cnnc(C3CC3)c2)cc1-c1ccnc(-c2ccnc(NC(=O)C3CC3)c2)c1 [Example 254] | 1000 to 10000 nM
1000 to 10000 nM | ≤ 100 nM | 1000 to 10000 nM | Cc1ncc(NC(=O)c2ccnc(C3CC3)c2)cc1-c1cnc(C)c(-c2ccnc(NC(=O)C3CC3)c2)c1 [Example 256] | 500 to 1000 nM
500 to 1000 nM | ≤ 100 nM | 1000 to 10000 nM | Cc1ccc(NC(=O)c2ccnc(C(C)(C)C#N)c2)cc1-c1ccnc(-c2ccnc(NC(=O)C3CC3)c2)n1 [Example 257] | ≤ 100 nM
1000 to 10000 nM | ≤ 100 nM | 1000 to 10000 nM | Cc1cc(F)c(NC(=O)c2cnnc(C3CC3)c2)cc1-c1ccnc(-c2ccnc(NC(=O)C3CC3)c2)n1 [Example 263] | 500 to 1000 nM
1000 to 10000 nM | ≤ 100 nM | 1000 to 10000 nM | CNC(=O)c1cc(-c2cc(-c3cc(NC(=O)c4ccnc(C(C)(C)OC)c4)ccc3C)ccn2)ccn1 [Example 264] | ≤ 100 nM
1000 to 10000 nM | ≤ 100 nM | 1000 to 10000 nM | CNC(=O)c1cc(-c2cc(-c3cc(NC(=O)c4ccnc(C5(C#N)CC5)c4)ccc3C)ccn2)ccn1 [Example 265] | ≤ 100 nM
1000 to 10000 nM | ≤ 100 nM | 1000 to 10000 nM | Cc1ncc(NC(=O)c2ccnc(C3CC3)c2)cc1-c1cccc(-c2ccnc(NC(=O)C3CC3)c2)n1 [Example 270] | 100 to 500 nM

Further lines, the compound ahead of its results:

SMILES | IC50 [1] | IC50 [2] | IC50 (Miapaca-2 cells) | IC50 (WM3928 cells)
Cc1ccc(NC(=O)c2ccnc(C(C)(C)C#N)c2)cc1-c1cccc(-c2cc(NC(=O)C3(C)CC3)ncn2)c1 [Example 197] | 1000 to 10000 nM | ≤ 100 nM | 1000 to 10000 nM | ≤ 100 nM
Cc1ccc(NC(=O)c2ccnc(C(C)(C)C#N)c2)cc1-c1cccc(-c2cc(NC(=O)C3(F)CC3)ncn2)c1 [Example 200] | 1000 to 10000 nM | ≤ 100 nM | 1000 to 10000 nM | ≤ 100 nM
Cc1ccc(NC(=O)c2cc(CN(C)C)cc(C(F)(F)F)c2)cc1-c1cccc(-c2cc(NC(=O)C3CC3)ncn2)c1 [Example 202] | 1000 to 10000 nM | ≤ 100 nM | 1000 to 10000 nM | ≤ 100 nM
Cc1ncc(NC(=O)c2ccnc(C(C)(C)C#N)c2)cc1-c1cccc(-c2cc(NC(=O)C(C)(C)C)ncn2)c1 [Example 213] | 1000 to 10000 nM | ≤ 100 nM | 1000 to 10000 nM | 100 to 500 nM
Cc1ccc(NC(=O)c2ccnc(C(C)(C)C#N)c2)cc1-c1cc(-c2cc(NC(=O)C3CC3)ncn2)cc(C2CC2)c1 [Example 216] | 1000 to 10000 nM | ≤ 100 nM | 1000 to 10000 nM | ≤ 100 nM
Cc1ncc(NC(=O)c2ccnc(C(C)(C)C#N)c2)cc1-c1cc(-c2cc(NC(=O)C3CC3)ncn2)cc(C2CC2)c1 [Example 218] | 1000 to 10000 nM | ≤ 100 nM | 1000 to 10000 nM | ≤ 100 nM
Cc1ncc(NC(=O)c2ccnc(C(C)(C)C#N)c2)cc1-c1ccnc(-c2ccnc(NC(=O)C(C)(C)C#N)c2)c1 [Example 219] | 1000 to 10000 nM | ≤ 100 nM | 1000 to 10000 nM | 100 to 500 nM
Cc1ccc(NC(=O)c2ccnc(C3(C#N)CC3)c2)cc1-c1cccc(-c2cc(NC(=O)C3CC3)ncn2)n1 [Example 220] | 1000 to 10000 nM | ≤ 100 nM | 1000 to 10000 nM | 1000 to 10000 nM
COCCNc1cc(-c2nccc(-c3cc(NC(=O)c4ccnc(C(C)(C)C#N)c4)ccc3C)n2)ccn1 [Example 221] | 1000 to 10000 nM | ≤ 100 nM | 1000 to 10000 nM | 500 to 1000 nM
Cc1ncc(NC(=O)c2ccnc(C(C)(C)C#N)c2)cc1-c1cccc(-c2ccnc(NC(=O)C3CC3)c2)c1 [Example 222] | 500 to 1000 nM | ≤ 100 nM | 1000 to 10000 nM | ≤ 100 nM
COC(=O)Nc1cc(-c2cccc(-c3cc(NC(=O)c4ccnc(C(C)(C)C#N)c4)cnc3C)c2)ncn1 [Example 225] | 1000 to 10000 nM | ≤ 100 nM | 1000 to 10000 nM | ≤ 100 nM
Cc1ncc(NC(=O)c2ccnc(C(C)(C)C#N)c2)cc1-c1cccc(-c2cc(NC(=O)C3CC3)ncn2)n1 [Example 226] | 1000 to 10000 nM | 100 to 500 nM | 1000 to 10000 nM | 1000 to 10000 nM
Cc1ccc(NC(=O)c2ccnc(C(C)(C)C#N)c2)cc1-c1cccc(-c2cc(NC(=O)C3CC3)ncn2)n1 [Example 233] | 1000 to 10000 nM | ≤ 100 nM | 1000 to 10000 nM | 1000 to 10000 nM
Cc1ccc(NC(=O)c2ccnc(C(C)(C)C#N)c2)cc1-c1ccnc(-c2ccnc(NC(=O)C3(C#N)CC3)c2)n1 [Example 241] | 1000 to 10000 nM | ≤ 100 nM | 500 to 1000 nM | ≤ 100 nM
Cc1ncc(NC(=O)c2ccnc(C(C)(C)F)c2)cc1-c1cccc(-c2cc(NC(=O)C3CC3)ncn2)c1 [Example 249] | 500 to 1000 nM | ≤ 100 nM | 1000 to 10000 nM | ≤ 100 nM
Cc1cc(F)c(NC(=O)c2ccnc(C3(C#N)CC3)c2)cc1-c1ccnc(-c2ccnc(NC(=O)C3CC3)c2)n1 [Example 262] | 500 to 1000 nM | ≤ 100 nM | 1000 to 10000 nM | ≤ 100 nM
Cc1ccc(NC(=O)c2ccnc(C(C)(C)C#N)c2)cc1-c1cccc(-c2cc(N)ncn2)c1 [Example 267] | 1000 to 10000 nM | ≤ 100 nM | 1000 to 10000 nM | 100 to 500 nM
Cc1cc(F)c(NC(=O)c2ccnc(C(F)(F)F)c2)cc1-c1cncc(-c2ccnc(NC(=O)C3CC3)c2)n1 [Example 271] | 500 to 1000 nM | ≤ 100 nM | 1000 to 10000 nM | ≤ 100 nM
Cc1cc(C(=O)Nc2cnc(C)c(-c3ccnc(-c4ccnc(NC(=O)C5CC5)c4)n3)c2)ccn1 [Example 273] | 1000 to 10000 nM | ≤ 100 nM | 1000 to 10000 nM | 1000 to 10000 nM
